Patent US11117892B2, “Pyrrolo-pyridine derivative compound, method for preparing same, and pharmaceutical composition containing same as active ingredient for prevention or treatment of protein kinase-related diseases” (DAEGU-GYEONGBUK MEDICAL INNOVATION FOUNDATION, priority 2017, dated 2021)

Columns and labels:
Assay in all cases: scanMAX Kinase assay panel
Assay type in all cases: binding
IRAK3 = IRAK3 (Homo sapiens (Human), UniProt Q9Y616); conditions: read-out: % control
Protocol: (§1) DiscoverX Co. was asked to measure the enzyme (kinase) selectivity, and the experiment was performed using scanMAX™ Kinase assay panel.
(§2) (Example Compound−Positive Control)/(Negative Control−Positive Control)×100 [Equation 1]
(§3) Herein, the positive control indicates the compound showing the % control of 0%, and the negative control indicates DMSO showing the % control of 100%.

HIPK4 = HIPK4 (Homo sapiens (Human), UniProt Q8NE63); conditions: read-out: % control
Protocol: as §1, §2, §3

ERBB4 = ERBB4 (Homo sapiens (Human), UniProt Q15303); conditions: read-out: % control
Protocol: as §1, §2, §3

[1] = molecular target: JAK3(JH1domain-catalytic) (Homo sapiens (Human), UniProt P52333); conditions: read-out: % control
Protocol: as §1, §2, §3

WNK4 = WNK4 (Homo sapiens (Human), UniProt Q96J92); conditions: read-out: % control
Sequence of WNK4 (Q96J92 whole entry): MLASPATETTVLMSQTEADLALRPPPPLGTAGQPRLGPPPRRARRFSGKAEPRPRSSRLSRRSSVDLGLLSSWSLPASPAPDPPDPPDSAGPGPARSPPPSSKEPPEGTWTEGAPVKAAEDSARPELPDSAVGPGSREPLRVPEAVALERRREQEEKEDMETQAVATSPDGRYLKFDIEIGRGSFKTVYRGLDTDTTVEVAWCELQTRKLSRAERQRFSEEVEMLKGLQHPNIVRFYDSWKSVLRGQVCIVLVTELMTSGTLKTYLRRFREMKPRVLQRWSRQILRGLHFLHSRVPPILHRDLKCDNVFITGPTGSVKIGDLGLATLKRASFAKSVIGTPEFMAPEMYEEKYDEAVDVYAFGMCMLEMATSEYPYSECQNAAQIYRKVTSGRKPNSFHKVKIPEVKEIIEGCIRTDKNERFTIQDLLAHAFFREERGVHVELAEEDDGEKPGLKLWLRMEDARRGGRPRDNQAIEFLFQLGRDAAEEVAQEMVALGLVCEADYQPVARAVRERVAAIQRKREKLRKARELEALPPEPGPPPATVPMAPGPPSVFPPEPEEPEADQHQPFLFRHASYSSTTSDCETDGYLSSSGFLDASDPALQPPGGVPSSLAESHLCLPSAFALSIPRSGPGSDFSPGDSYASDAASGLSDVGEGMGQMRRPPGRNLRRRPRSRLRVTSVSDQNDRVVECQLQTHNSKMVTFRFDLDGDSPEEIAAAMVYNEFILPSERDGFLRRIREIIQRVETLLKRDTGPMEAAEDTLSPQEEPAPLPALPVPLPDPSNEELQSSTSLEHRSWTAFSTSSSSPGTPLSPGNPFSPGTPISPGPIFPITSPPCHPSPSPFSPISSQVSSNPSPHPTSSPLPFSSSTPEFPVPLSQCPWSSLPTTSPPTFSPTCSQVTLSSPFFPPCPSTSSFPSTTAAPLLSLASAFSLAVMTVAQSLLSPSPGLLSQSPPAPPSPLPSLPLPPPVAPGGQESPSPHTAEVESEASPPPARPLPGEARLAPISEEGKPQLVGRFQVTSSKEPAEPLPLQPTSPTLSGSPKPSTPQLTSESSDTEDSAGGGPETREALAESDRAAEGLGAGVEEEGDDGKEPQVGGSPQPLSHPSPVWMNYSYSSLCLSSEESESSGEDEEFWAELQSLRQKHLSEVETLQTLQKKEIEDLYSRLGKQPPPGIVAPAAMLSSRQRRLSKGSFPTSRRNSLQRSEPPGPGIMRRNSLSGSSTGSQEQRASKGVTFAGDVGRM
Protocol: as §1, §2, §3

MST4 = MST4 (Homo sapiens (Human), UniProt Q9P289); conditions: read-out: % control
Sequence of MST4 (Q9P289 whole entry): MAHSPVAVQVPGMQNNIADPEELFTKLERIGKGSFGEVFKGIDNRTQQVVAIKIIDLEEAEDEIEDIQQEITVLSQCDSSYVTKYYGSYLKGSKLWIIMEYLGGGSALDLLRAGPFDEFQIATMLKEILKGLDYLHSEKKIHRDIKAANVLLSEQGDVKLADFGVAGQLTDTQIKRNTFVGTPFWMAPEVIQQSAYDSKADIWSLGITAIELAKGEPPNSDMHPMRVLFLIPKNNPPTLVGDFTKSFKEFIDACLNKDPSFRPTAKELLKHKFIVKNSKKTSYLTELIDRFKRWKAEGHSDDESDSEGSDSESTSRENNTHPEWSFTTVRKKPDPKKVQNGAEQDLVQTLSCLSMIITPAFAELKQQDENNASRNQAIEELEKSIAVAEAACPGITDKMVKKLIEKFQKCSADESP
Protocol: as §1, §2, §3

PIM3 = PIM3 (Homo sapiens (Human), UniProt Q86V86); conditions: read-out: % control
Protocol: as §1, §2, §3

ZAP70 = ZAP70 (Homo sapiens (Human), UniProt P43403); conditions: read-out: % control
Protocol: as §1, §2, §3

NEK9 = NEK9 (Homo sapiens (Human), UniProt Q8TD19); conditions: read-out: % control
Protocol: as §1, §2, §3

MKNK1 = MKNK1 (Homo sapiens (Human), UniProt Q9BUB5); conditions: read-out: % control
Protocol: as §1, §2, §3

TESK1 = TESK1 (Homo sapiens (Human), UniProt Q15569); conditions: read-out: % control
Protocol: as §1, §2, §3

PCTK3 = PCTK3 (Homo sapiens (Human), UniProt Q07002); conditions: read-out: % control
Protocol: as §1, §2, §3

EGFR(T790M) = EGFR(T790M) (Homo sapiens (Human), UniProt P00533, T790M); conditions: read-out: % control
Sequence of EGFR(T790M) (P00533 25-1210 T790M): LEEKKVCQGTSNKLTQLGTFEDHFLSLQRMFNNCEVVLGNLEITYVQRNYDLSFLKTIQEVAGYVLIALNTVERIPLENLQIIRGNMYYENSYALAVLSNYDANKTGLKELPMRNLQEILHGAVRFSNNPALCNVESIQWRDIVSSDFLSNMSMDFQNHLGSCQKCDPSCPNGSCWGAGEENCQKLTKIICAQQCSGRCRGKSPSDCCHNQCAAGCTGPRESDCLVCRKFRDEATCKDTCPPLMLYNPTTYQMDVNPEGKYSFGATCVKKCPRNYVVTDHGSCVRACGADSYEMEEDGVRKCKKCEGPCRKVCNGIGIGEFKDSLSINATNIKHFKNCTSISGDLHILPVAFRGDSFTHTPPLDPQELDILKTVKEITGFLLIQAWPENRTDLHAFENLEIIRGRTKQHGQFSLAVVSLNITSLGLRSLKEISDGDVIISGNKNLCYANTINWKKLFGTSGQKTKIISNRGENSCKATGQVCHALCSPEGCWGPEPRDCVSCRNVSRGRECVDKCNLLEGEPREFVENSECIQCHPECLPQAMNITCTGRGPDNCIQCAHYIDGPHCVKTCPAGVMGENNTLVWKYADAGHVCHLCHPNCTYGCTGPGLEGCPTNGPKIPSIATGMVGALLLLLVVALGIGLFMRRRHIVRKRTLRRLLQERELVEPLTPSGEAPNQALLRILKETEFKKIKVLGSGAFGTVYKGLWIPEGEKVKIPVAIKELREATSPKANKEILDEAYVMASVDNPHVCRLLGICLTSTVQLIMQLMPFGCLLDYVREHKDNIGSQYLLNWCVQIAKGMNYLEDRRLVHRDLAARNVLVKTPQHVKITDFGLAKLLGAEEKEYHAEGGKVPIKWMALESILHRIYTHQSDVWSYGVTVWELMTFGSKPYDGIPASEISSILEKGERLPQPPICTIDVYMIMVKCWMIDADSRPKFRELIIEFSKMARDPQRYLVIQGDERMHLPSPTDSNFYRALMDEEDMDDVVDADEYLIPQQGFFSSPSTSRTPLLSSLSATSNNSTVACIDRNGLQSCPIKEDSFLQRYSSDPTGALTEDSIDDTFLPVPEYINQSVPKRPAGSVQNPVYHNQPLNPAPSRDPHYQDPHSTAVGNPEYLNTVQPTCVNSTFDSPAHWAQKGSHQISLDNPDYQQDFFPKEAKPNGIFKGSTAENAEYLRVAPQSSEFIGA
Protocol: as §1, §2, §3

[2] = molecular target: RSK4(Kin.Dom.2-C-terminal) (Homo sapiens (Human), UniProt Q9UK32); conditions: read-out: % control
Protocol: as §1, §2, §3

EGFR(L747-T751del, Sins) = EGFR(L747-T751del, Sins) (Homo sapiens (Human), UniProt P00533, DEL747-751/INS746S); conditions: read-out: % control
Protocol: as §1, §2, §3

ITK = ITK (Homo sapiens (Human), UniProt Q08881); conditions: read-out: % control
Protocol: as §1, §2, §3

PKN1 = PKN1 (Homo sapiens (Human), UniProt Q16512); conditions: read-out: % control
Protocol: as §1, §2, §3

MEK1 = MEK1 (Homo sapiens (Human), UniProt Q02750); conditions: read-out: % control
Sequence of MEK1 (Q02750 whole entry): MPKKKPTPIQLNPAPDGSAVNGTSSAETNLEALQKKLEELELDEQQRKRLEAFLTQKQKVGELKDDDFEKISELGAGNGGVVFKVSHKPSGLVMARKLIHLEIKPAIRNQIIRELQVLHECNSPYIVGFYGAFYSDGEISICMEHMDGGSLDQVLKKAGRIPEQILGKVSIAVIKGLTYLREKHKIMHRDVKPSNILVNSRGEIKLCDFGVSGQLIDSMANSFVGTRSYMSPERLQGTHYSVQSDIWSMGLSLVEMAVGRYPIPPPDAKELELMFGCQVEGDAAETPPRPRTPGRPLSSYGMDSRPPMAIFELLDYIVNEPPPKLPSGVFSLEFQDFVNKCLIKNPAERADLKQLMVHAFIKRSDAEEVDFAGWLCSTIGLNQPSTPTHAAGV
Protocol: as §1, §2, §3

MLK2 = MLK2 (Homo sapiens (Human), UniProt Q02779); conditions: read-out: % control
Protocol: as §1, §2, §3

[3] = molecular target: RSK1(Kin.Dom.1-N-terminal) (Homo sapiens (Human), UniProt Q15418); conditions: read-out: % control
Protocol: as §1, §2, §3

FLT3(ITD, D835V) = conditions: 1 uM
Protocol: as §1, §2, §3

PRKCI = PRKCI (Homo sapiens (Human), UniProt P41743); conditions: read-out: % control
Protocol: as §1, §2, §3

BTK = BTK (Homo sapiens (Human), UniProt Q06187); conditions: read-out: % control
Sequence of BTK (Q06187 whole entry): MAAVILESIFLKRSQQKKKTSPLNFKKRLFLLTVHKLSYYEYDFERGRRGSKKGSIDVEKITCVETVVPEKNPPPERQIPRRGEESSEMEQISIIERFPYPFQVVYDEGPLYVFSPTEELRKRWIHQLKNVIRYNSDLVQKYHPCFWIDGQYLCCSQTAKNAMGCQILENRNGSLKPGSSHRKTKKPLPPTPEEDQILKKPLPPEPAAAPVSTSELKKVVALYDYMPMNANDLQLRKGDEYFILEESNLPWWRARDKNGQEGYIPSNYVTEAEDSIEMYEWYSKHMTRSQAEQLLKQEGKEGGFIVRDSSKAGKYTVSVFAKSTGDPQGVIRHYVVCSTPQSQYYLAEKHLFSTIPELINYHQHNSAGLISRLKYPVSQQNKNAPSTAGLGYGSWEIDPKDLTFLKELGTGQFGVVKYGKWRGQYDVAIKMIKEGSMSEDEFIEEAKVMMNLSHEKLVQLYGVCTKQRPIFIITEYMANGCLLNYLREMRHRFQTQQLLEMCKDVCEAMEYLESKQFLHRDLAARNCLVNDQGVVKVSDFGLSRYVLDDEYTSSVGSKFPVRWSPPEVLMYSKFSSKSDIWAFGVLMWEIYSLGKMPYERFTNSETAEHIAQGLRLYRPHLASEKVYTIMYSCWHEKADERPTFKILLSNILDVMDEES
Protocol: as §1, §2, §3

PIM1 = PIM1 (Homo sapiens (Human), UniProt P11309); conditions: read-out: % control
Protocol: as §1, §2, §3

DCAMKL2 = DCAMKL2 (Homo sapiens (Human), UniProt Q8N568); conditions: read-out: % control
Protocol: as §1, §2, §3

GRK7 = GRK7 (Homo sapiens (Human), UniProt Q8WTQ7); conditions: read-out: % control
Protocol: as §1, §2, §3

MERTK = MERTK (Homo sapiens (Human), UniProt Q12866); conditions: read-out: % control
Protocol: as §1, §2, §3

[4] = molecular target: RSK2(Kin.Dom.2-C-terminal) (Homo sapiens (Human), UniProt P51812); conditions: read-out: % control
Protocol: as §1, §2, §3

BMPR1B = BMPR1B (Homo sapiens (Human), UniProt O00238); conditions: read-out: % control
Protocol: as §1, §2, §3

PDGFRA = PDGFRA (Homo sapiens (Human), UniProt P16234); conditions: read-out: % control
Protocol: as §1, §2, §3

PLK4 = PLK4 (Homo sapiens (Human), UniProt O00444); conditions: read-out: % control
Sequence of PLK4 (O00444 whole entry): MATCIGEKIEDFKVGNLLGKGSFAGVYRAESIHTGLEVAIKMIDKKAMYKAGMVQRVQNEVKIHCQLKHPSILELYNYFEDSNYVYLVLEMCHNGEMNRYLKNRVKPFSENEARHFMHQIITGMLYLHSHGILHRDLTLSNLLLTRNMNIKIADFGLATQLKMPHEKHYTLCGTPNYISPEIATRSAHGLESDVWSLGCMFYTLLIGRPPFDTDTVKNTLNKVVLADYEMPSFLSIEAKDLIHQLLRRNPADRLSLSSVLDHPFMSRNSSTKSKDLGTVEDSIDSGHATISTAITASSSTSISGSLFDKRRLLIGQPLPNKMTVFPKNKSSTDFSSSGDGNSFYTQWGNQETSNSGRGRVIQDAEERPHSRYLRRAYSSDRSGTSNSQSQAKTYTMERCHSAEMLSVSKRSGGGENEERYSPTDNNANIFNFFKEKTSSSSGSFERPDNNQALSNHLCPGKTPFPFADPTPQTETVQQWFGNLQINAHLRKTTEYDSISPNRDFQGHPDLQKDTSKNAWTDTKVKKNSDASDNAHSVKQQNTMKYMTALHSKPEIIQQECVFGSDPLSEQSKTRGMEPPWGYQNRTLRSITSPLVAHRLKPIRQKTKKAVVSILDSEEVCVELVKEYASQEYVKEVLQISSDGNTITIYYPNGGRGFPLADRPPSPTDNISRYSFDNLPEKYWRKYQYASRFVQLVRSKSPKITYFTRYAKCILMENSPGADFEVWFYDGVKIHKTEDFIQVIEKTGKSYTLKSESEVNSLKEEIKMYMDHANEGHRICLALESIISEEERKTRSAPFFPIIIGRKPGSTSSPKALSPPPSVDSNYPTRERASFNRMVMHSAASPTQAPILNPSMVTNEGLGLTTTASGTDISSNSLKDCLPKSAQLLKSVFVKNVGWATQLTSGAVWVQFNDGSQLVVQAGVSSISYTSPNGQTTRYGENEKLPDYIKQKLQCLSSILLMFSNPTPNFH
Protocol: as §1, §2, §3

PIK3CA(Q546K) = PIK3CA(Q546K) (Homo sapiens (Human), UniProt P42336, Q546K); conditions: read-out: % control
Protocol: as §1, §2, §3

JNK1 = JNK1 (Homo sapiens (Human), UniProt P45983); conditions: read-out: % control
Protocol: as §1, §2, §3

DCAMKL3 = DCAMKL3 (Homo sapiens (Human), UniProt Q9C098); conditions: read-out: % control
Protocol: as §1, §2, §3

FES = FES (Homo sapiens (Human), UniProt P07332); conditions: read-out: % control
Protocol: as §1, §2, §3

EPHA6 = EPHA6 (Homo sapiens (Human), UniProt Q9UF33); conditions: read-out: % control
Protocol: as §1, §2, §3

PRKD1 = PRKD1 (Homo sapiens (Human), UniProt Q15139); conditions: read-out: % control
Protocol: as §1, §2, §3

STK33 = STK33 (Homo sapiens (Human), UniProt Q9BYT3); conditions: read-out: % control
Protocol: as §1, §2, §3

Structure (SMILES) | remaining binding at 1 µM (IRAK3) [%] | remaining binding at 1 µM (HIPK4) [%] | remaining binding at 1 µM (ERBB4) [%] | remaining binding at 1 µM [1] [%] | remaining binding at 1 µM (WNK4) [%] | remaining binding at 1 µM (MST4) [%] | remaining binding at 1 µM (PIM3) [%] | remaining binding at 1 µM (ZAP70) [%] | remaining binding at 1 µM (NEK9) [%] | remaining binding at 1 µM (MKNK1) [%] | remaining binding at 1 µM (TESK1) [%] | remaining binding at 1 µM (PCTK3) [%] | remaining binding at 1 µM (EGFR(T790M)) [%] | remaining binding at 1 µM [2] [%] | remaining binding at 1 µM (EGFR(L747-T751del, Sins)) [%] | remaining binding at 1 µM (ITK) [%] | remaining binding at 1 µM (PKN1) [%] | remaining binding at 1 µM (MEK1) [%] | remaining binding at 1 µM (MLK2) [%] | remaining binding at 1 µM [3] [%] | further results
CCNc1cc(Nc2ccc(C(=O)N3CCC(N4CCOCC4)CC3)cc2OC)nc2[nH]cc(C(F)(F)F)c12 [Example 57, (4-((4-(ethylamino)-3-(trifluoromethyl)-1H-pyrrolo[2,3-b]pyridin-6-yl)amino)-3-methoxyphenyl) (4-morpholinopiperidin-1-yl)methanone] | 79 | 86 | 82 | 100 | 100 | 100 | 78 | 100 | 89 | 100 | 79 | 86 | 88 | 80 | 97 | 97 | 71 | 100 | 77 | 76 | % control (FLT3(ITD, D835V)): 100%; remaining binding at 1 µM (PRKCI): 63%; remaining binding at 1 µM (BTK): 100%; remaining binding at 1 µM (PIM1): 94%; remaining binding at 1 µM (DCAMKL2): 79%; remaining binding at 1 µM (GRK7): 84%; remaining binding at 1 µM (MERTK): 91%; remaining binding at 1 µM [4]: 100%; remaining binding at 1 µM (BMPR1B): 100%; remaining binding at 1 µM (PDGFRA): 100%; remaining binding at 1 µM (PLK4): 47%; remaining binding at 1 µM (PIK3CA(Q546K)): 100%; remaining binding at 1 µM (JNK1): 40%; remaining binding at 1 µM (DCAMKL3): 88%; remaining binding at 1 µM (FES): 87%; remaining binding at 1 µM (EPHA6): 87%; remaining binding at 1 µM (PRKD1): 73%; remaining binding at 1 µM (STK33): 16%
CCNc1cc(Nc2ccc(C(=O)N3CCC(N4CCOCC4)CC3)cc2OC)nc2[nH]cc(C#N)c12 [Example 18, 4-(ethylamino)-6-((2-methoxy-4-(4-morpholinopiperidine-1-carbonyl)phenyl)amino)-1H-pyrrolo[2,3-b]pyridine-3-carbonitrile] | 84 | 100 | 85 | 54 | 79 | 81 | 78 | 38 | 91 | 93 | 90 | 86 | 100 | 71 | 100 | 87 | 85 | 19 | 72 | 73 | % control (FLT3(ITD, D835V)): 100%; remaining binding at 1 µM (PRKCI): 76%; remaining binding at 1 µM (BTK): 99%; remaining binding at 1 µM (PIM1): 59%; remaining binding at 1 µM (DCAMKL2): 77%; remaining binding at 1 µM (GRK7): 96%; remaining binding at 1 µM (MERTK): 100%; remaining binding at 1 µM [4]: 100%; remaining binding at 1 µM (BMPR1B): 85%; remaining binding at 1 µM (PDGFRA): 77%; remaining binding at 1 µM (PLK4): 40%; remaining binding at 1 µM (PIK3CA(Q546K)): 100%; remaining binding at 1 µM (JNK1): 0%; remaining binding at 1 µM (DCAMKL3): 84%; remaining binding at 1 µM (FES): 89%; remaining binding at 1 µM (EPHA6): 98%; remaining binding at 1 µM (PRKD1): 14%; remaining binding at 1 µM (STK33): 17%
